According to US10570463B2, “Nucleic acid modifying agents and uses thereof” (BIOTIUM, INC., priority 2014, dated 2020):
“Also recorded” adds a separate entry of the source.

Key:
[1] = system: Staphylococcus epidermidis; assay: Viability PCR (dCt, 16S rDNA) after dye treatment and photolysis, cultured Staphylococcus epidermidis; assay type: cell-based; conditions: 50 uM dye, 3D; for dCt, modification of DNA in live cells: live S. epidermidis, 470 nm light 15 min, FIG. 1, 2B
Procedure: Escherichia coli, Salmonella enterica, and Bacillus subtilis were cultured in tryptic soy broth (TSB). Staphylococcus epidermidis was cultured in nutrient broth (NB). Bacteria were cultured overnight at 37° C. The following day, the absorbance of the cultures at 600 nm was measured and the cultures were diluted to OD600=1.0 in growth media. Bacteria cultures were pipetted into 1.5 mL screw-top tubes at 400 uL per tube. For dead cell samples, tubes were placed in a 95° C. heat block for 5 minutes, and then allowed to return to room temperature. PMA products (cat #40013 and 40019, Biotium) and selected compounds of the disclosure (104.1, 014, or 020, where indicated) were diluted to 2.5 mM in water, and then 8 uL was added to the bacterial culture for a final concentration of 50 uM. Cultures were incubated on a rocker in the dark at room temperature for 10 minutes, and then exposed to 470 nm wavelength light in the PMA-Lite LED device for 15 minutes. Samples were centrifuged at 5000×g for 10 minutes and the supernatant was aspirated off. DNA was then purified from bacterial pellets using the Qiagen Blood and Tissue kit and eluted in 100 uL elution buffer.
PCR was performed using the universal primers DG74 and RW01 which amplify a 370-bp region of the 16S rDNA. Forward Primer DG74 sequence: 5′-AGG AGG TGA TCC AAC CGC A-3′. Reverse Primer RW01 sequence: 5′-AACTGGAGGAAGGTGGGGAT-3′. The following PCR mix was prepared for each sample: 12.5 uL Fast EvaGreen Master Mix (Biotium), 1 uL 5 uM primer mix, 9.5 uL water, and 2 uL isolated bacterial DNA. […] 25 sec, 72° C., acquiring fluorescence after this step. Using the Rotor-Gene Q software, normalized fluorescence and Ct values were calculated. The change in Ct (dCt) caused by a dye was calculated by subtracting the Ct of the untreated bacteria from the Ct of the dye-treated bacteria.
(§1) Live Staphylococcus epidermidis (a gram-positive bacteria) was either left untreated, treated with one of two versions of commercial PMA products (cat #40013 and 40019, Biotium), or treated with a compound of the present disclosure (compound 104.1, 014, or 020). Viability PCR was performed and the effect of each dye was measured by determining the dCt. The dCt was calculated by subtracting the Ct of untreated sample from dye-treated sample. […]
as §1, with “Live or dead Bacillus subtilis (FIG. 2A) or” for “Live”, “(FIG. 2B) were” for “(a gram-positive bacteria) was”, “cat #40019,” for “40019,”, “Compound 104.1.” for “a compound of the present disclosure (compound 104.1, 014, or 020).”

[2] = system: Escherichia coli; assay: Viability PCR (dCt, 16S rDNA) after dye treatment and photolysis, cultured Escherichia coli; assay type: cell-based; conditions: 50 uM dye, compared with PMA, FIG. 3A
Procedure: (§2) Escherichia coli, Salmonella enterica, and Bacillus subtilis were cultured in tryptic soy broth (TSB). Staphylococcus epidermidis was cultured in nutrient broth (NB). Bacteria were cultured overnight at 37° C. The following day, the absorbance of the cultures at 600 nm was measured and the cultures were diluted to OD600=1.0 in growth media. Bacteria cultures were pipetted into 1.5 mL screw-top tubes at 400 uL per tube. For dead cell samples, tubes were placed in a 95° C. heat block for 5 minutes, and then allowed to return to room temperature. […]
(§3) PCR was performed using the universal primers DG74 and RW01 which amplify a 370-bp region of the 16S rDNA. […] 25 sec, 72° C., acquiring fluorescence after this step. Using the Rotor-Gene Q software, normalized fluorescence and Ct values were calculated. The change in Ct (dCt) caused by a dye was calculated by subtracting the Ct of the untreated bacteria from the Ct of the dye-treated bacteria.
(§4) Live or dead Escherichia coli (FIG. 3A), Salmonella enterica (FIG. 3B), Bacillus subtilis (FIG. 3C) or Staphylococcus epidermidis (FIG. 3D) were either left untreated, treated with PMA, or treated with Compound 014. Viability PCR was performed and the effect of each dye was measured by determining the dCt. The dCt was calculated by subtracting the Ct of untreated sample from dye-treated sample. […]

[3] = system: Bacillus subtilis; assay: Viability PCR (dCt, 16S rDNA) after dye treatment and photolysis, cultured Bacillus subtilis; assay type: cell-based; conditions: 50 uM dye, compared with PMA, FIG. 2A, 3C
Procedure: as §2, §3
as §1, with “Live or dead Bacillus subtilis (FIG. 2A) or” for “Live”, “(FIG. 2B) were” for “(a gram-positive bacteria) was”, “cat #40019,” for “40019,”, “Compound 104.1.” for “a compound of the present disclosure (compound 104.1, 014, or 020).”

[4] = system: swabbed S. epidermidis; assay: Viability PCR (dCt) in Staphylococcus epidermidis collected by swabbing; assay type: cell-based; conditions: live and heat-killed S. epidermidis dried on plastic and swabbed; FIG. 5
Procedure: As in Example 16, Staphylococcus epidermidis was cultured in nutrient broth (NB) overnight at 37° C. The following day, the absorbance of the cultures at 600 nm was measured and the cultures were diluted to OD600=1.0 in growth media. For dead cell samples, bacteria were placed in a 95° C. heat block for 5 minutes, and then allowed to return to room temperature. 1200 uL of live or dead bacteria were spread separately onto sterile plastic petri dishes and air-dried for four hours. To mimic a common method of bacterial sample collection, a sterile cotton swab was moistened with NB, swabbed on the plate and swirled in a tube containing 1200 uL NB. This process was repeated 3 times each for live and dead bacteria, until most of the bacteria from the plate had been transferred into the media. 400 uL of swabbed bacteria was pipetted into tubes, and either left untreated, treated with PMA dye, or treated with Compound 014, as described in Example 16. Viability PCR was performed and the effect of each dye was measured by determining the dCt. The dCt was calculated by subtracting the Ct of untreated sample from dye-treated sample. […] The dCt values are shown above each bar.

[5] = system: Salmonella enterica; assay: Viability PCR (dCt, 16S rDNA) after dye treatment and photolysis, cultured Salmonella enterica; assay type: cell-based; conditions: 50 uM dye, compared with PMA, FIG. 3B
Procedure: as §2, §3, §4

[6] = system: relatively short amplicons; conditions: cited from earlier work
[7] = system: Staphylococcus aureus; conditions: samples collected by swabbing from surfaces; cited from earlier work
[8] = system: Mycobacterium avium subspecies paratuberculosis (MAP); conditions: PMA qPCR; cited from earlier work
[9] = system: Jurkat cells; assay: Viability staining of live and heat-killed Jurkat cells, fluorescence microscopy; assay type: cell-based, human; conditions: Cy3 filter
Procedure: 1:1 mixtures of live and heat-killed Jurkat cells were prepared and treated with PMA, as described in Example 21. The cells were transferred to a black optical bottom 96-well plate and imaged on an Olympus IX71 inverted fluorescence microscope using a Cy3 filter cube and Retiga 2000R Fast 1394 digital CCD camera with 300 msec exposure time. Imaging results are provided in FIG. 7A-D. The stained cells were either left unfixed (FIGS. 7A and B) or fixed and permeabilized (FIGS. 7C and D). Fluorescence images (FIGS. 7A and C) show stained cells, while merged fluorescence/phase contrast images (FIGS. 7B and D) show stained and unstained cells.

[10] = system: Salmonella serovar Enteritidis; conditions: cited from earlier work
[11] = system: Jurkat cells; assay: Viability staining of live and heat-killed Jurkat cells, flow cytometry; assay type: cell-based, human; conditions: 1 uM
Procedure: Jurkat cells were maintained in RPMI media supplemented with 10% fetal bovine serum, 10 mM HEPES, and 1 mM sodium pyruvate. Cells were counted and diluted to 1.0×10^6 cells/mL in growth media. Cells were pelleted by centrifugation at 350×g and resuspended in PBS. Half of the cells were heat-killed by incubation in a 56° C. water bath for 45 minutes. After they had cooled to room temperature, live and dead cells were combined in a 1:1 ratio, pelleted and washed once with PBS, and resuspended in PBS at 1.0×10^6 cells/mL. Aliquots of 1 mL were pipetted into 1.5 mL microcentrifuge tubes. Working in the dark, PMA and compound 104.1 were diluted to 1 mM in water. 1 uL of the indicated compound was added to 1 mL of cells for a final concentration of 1 uM. Cells were incubated in the dark, rocking, for 10 minutes, then exposed to light in the PMA-Lite for 15 minutes. Cells were transferred to FACS tubes and pelleted. Half of the tubes were placed at 4° C. in the dark (unfixed). […]
Stained cells were analyzed by flow cytometry on a BD LSRII. For detection of PMA and compound 104.1 staining, samples were excited with the 488 nm laser, and the signal was detected in the PE-Texas Red channel. Flow cytometry data was analyzed using FlowJo software from […]. […]

SMILES	dCt, effect on dead cells ([1]; heat-killed S. epidermidis, compared with PMA, FIG. 2B)	dCt, modification of DNA in live cells [1]	dCt, effect on dead cells ([2]; heat-killed E. coli)	dCt, effect on live cells ([2]; live E. coli)	dCt, effect on dead cells ([3]; heat-killed B. subtilis)	dCt, effect on live cells ([3]; live B. subtilis)	live/dead discrimination by dCt [4]	dCt, effect on dead cells ([5]; heat-killed S. enterica)	dCt, effect on live cells ([5]; live S. enterica)	effect of PMA treatment on amplification of short amplicons [6]	determination of amount of living cells [7]	entry of dye into viable cells [8]	fluorescence discrimination of stained and unstained cells, fixed and permeabilized ([9]; fixed and permeabilized cells, FIG. 7C, 7D)	fluorescence discrimination of stained and unstained cells, unfixed ([9]; unfixed cells, FIG. 7A, 7B)	suppression of qPCR signal from killed bacteria ([10]; killed Salmonella serovar Enteritidis)	entry of dye into viable cells ([10]; viable Salmonella serovar Enteritidis)	staining of live and dead cells after fixation and permeabilization ([11]; 2% formaldehyde, 0.1% Triton X-100, FIG. 6B, 6D)	staining of live and dead cells, unfixed ([11]; unfixed cells, 488 nm laser, PE-Texas Red channel, FIG. 6A, 6C)
C[N+](C)(C)CCNC(=O)CCOCCOCCOCCOCCNC(=O)CCCCC[n+]1c(-c2ccccc2)c2cc(N)ccc2c2ccc(N=[N+]=[N-])cc21 [Compound 014]	greater effect on dead cells	little to none; also recorded: less of an effect on live cells	greater effect on dead cells	less of an effect on live cells	greater effect on dead cells	less of an effect on live cells	showed a large difference between live and dead cells	greater effect on dead cells	less of an effect on live cells	–	–	–	–	–	–	–	–	–
[N-]=[N+]=Nc1ccc2c3ccc(N)cc3c(-c3ccccc3)[n+](CCCCCC(=O)NCCOCCOCCOCCOCCC(=O)N[C@@H](CS(=O)(=O)[O-])C(=O)O)c2c1 [Compound 020]	–	little to none	–	–	–	–	–	–	–	–	–	–	–	–	–	–	–	–
CC[N+](C)(CC)CCC[n+]1c(-c2ccccc2)c2cc(N=[N+]=[N-])ccc2c2ccc(N)cc21 [PMA, propidium monoazide]	–	causes some modification of DNA	–	–	–	–	did not function well to discriminate live and dead	–	–	not affected by PMA treatment	does not allow the determination of amount of living cells	found to enter viable MAP	PMA staining is retained after fixation, with clear discrimination between PMA-positive and PMA-negative cells	greater difference in fluorescence intensity between PMA-positive and PMA-negative cells	ineffective in suppressing qPCR signal from the killed bacteria	found to enter viable Salmonella serovar Enteritidis	increase in staining of live cells (loss of specificity)	bright, specific staining of dead cells
